Several values for one entry are separate records, joined by “and”; a condition that tells them apart may be missing. Equal values may be shown once. Read-outs that look alike come from different tables or passages of the source.
Assays:
Solubility in water = type: physicochemical
SW-872 cells = experiment: Cell cycle distribution by flow cytometry, DAPI staining; type: cell-based, human; conditions: SW-872, IC25 concentration, 18 h

- solubility in water (Solubility in water): 4420 µg/mL and 4400 µg/mL
- solubility in water (Solubility in water; listed as L^Cu): 1600 µg/mL
- solubility in water (Solubility in water; listed as L^Fe): 2500 µg/mL
- solubility in water (Solubility in water; listed as L^Mn): 3200 µg/mL
- solubility in water (Solubility in water; listed as L^Ni): 1400 µg/mL
- solubility in water (Solubility in water; listed as L^Zn): 2400 µg/mL
Compound: O=S(=O)([O-])c1ccc(O)c(C=NNC(=S)Nc2cccc3ccccc23)c1.[Na+] [L, sodium-4-hydroxy-3-((2-(naphthalene-1-ylcarbamothioyl)hydrazono)methyl)benzenesulfonate]
- Cell cycle distribution, S (SW-872 cells): 32.94
- effect on cell cycle (SW-872 cells): cell cycle arrest in the S phase
